Reference: ChEMBL document CHEMBL5032539, “Indole-Containing Amidinohydrazones as Nonpeptide, Dual RXFP3/4 Agonists: Synthesis, Structure-Activity Relationship, and Molecular Modeling Studies” (J Med Chem, 2021)
Values after ≈ are worked out from the molar mass of the structure shown.

Target: T1, Relaxin-3 receptor 1 (Homo sapiens, UniProt Q9NSD7)
T1 sequence (Q9NSD7 whole entry): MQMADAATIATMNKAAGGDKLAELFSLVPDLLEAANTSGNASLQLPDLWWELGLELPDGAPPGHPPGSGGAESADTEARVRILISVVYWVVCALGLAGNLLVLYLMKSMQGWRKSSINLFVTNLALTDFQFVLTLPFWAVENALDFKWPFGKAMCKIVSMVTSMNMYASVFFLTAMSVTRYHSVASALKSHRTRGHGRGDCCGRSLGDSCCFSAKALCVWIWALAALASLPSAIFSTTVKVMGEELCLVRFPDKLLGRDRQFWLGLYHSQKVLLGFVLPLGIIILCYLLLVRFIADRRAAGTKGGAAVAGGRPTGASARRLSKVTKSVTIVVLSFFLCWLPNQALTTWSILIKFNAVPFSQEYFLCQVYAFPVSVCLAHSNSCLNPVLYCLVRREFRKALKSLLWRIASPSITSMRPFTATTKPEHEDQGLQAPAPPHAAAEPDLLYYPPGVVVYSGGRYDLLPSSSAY
Experiment: not given
Details: not given

**Q.** With `COc1cc(C)c2[nH]cc(/C=N/NC(=N)NCCc3ccc(Cl)cc3)c2c1` as the compound, how does the EC50 read?
**A.** 74.7 nM

**Q.** Which EC50 does the source give for `COC(=O)c1ccc(CCNC(=N)N/N=C/c2c[nH]c3c(C)cc(OC)cc23)cc1` here?
**A.** 7.7 nM

**Q.** With `COc1cc(C)c2[nH]cc(/C=N/NC(=N)NCCc3ccc(I)cc3)c2c1` as the compound, how does the EC50 read?
**A.** 67 nM

**Q.** With `COc1ccc(CCNC(=N)N/N=C/c2c[nH]c3c(C)cc(OC)cc23)cc1` as the compound, how does the EC50 read?
**A.** 56.1 nM

**Q.** With `N#Cc1ccc2[nH]cc(/C=N/NC(=N)NCCc3ccc(Cl)cc3)c2c1` as the compound, how does the EC50 read?
**A.** 253 nM

**Q.** With `Cc1ccc2c(/C=N/NC(=N)NCCc3ccc(Cl)cc3)c[nH]c2c1` as the compound, how does the EC50 read?
**A.** 7440 nM

**Q.** With `COc1cc(C)c2[nH]cc(/C=N/NC(=N)Nc3ccc(Cl)cc3)c2c1` as the compound, how does the EC50 read?
**A.** 3120 nM

**Q.** With `Cc1cc(C#N)cc2c(/C=N/NC(=N)NCCc3ccc(Cl)cc3)c[nH]c12` as the compound, how does the EC50 read?
**A.** 82.3 nM

**Q.** Which EC50 does the source give for `COc1cc(C)c2[nH]cc(/C=N/NC(=N)NCCc3ccc([N+](=O)[O-])cc3)c2c1` here?
**A.** 13.6 nM

**Q.** For `COc1ccc2c(/C=N/NC(=N)NCCc3ccc(Cl)cc3)c[nH]c2c1`, which EC50 is on record?
**A.** 4750 nM

**Q.** For `CCc1cc(OC)cc2c(/C=N/NC(=N)NCCc3ccc(Cl)cc3)c[nH]c12`, which EC50 is on record?
**A.** 19.5 nM

**Q.** With `COc1cc(C)c2[nH]cc(/C=N/NC(=N)NCCc3ccc(N(C)C)cc3)c2c1` as the compound, how does the EC50 read?
**A.** 98.4 nM

**Q.** Which EC50 does the source give for `Cc1cccc2c(/C=N/NC(=N)NCCc3ccc(Cl)cc3)c[nH]c12` here?
**A.** 647 nM

**Q.** With `COc1cc(C)c2[nH]cc(/C=N/NC(=N)NCCCc3ccc(Cl)cc3)c2c1` as the compound, how does the EC50 read?
**A.** 1660 nM

**Q.** Which EC50 does the source give for `CCc1cc(OC)cc2c(/C=N/NC(=N)NCCc3ccc(F)cc3)c[nH]c12` here?
**A.** 5.6 nM

**Q.** With `N=C(NCCc1ccc(Cl)cc1)N/N=C/c1c[nH]c2cc(F)ccc12` as the compound, how does the EC50 read?
**A.** 3470 nM

**Q.** With `CCc1cc(OC)cc2c(/C=N/NC(=N)NCCc3cccnc3)c[nH]c12` as the compound, how does the EC50 read?
**A.** 2.3 nM

**Q.** Which EC50 does the source give for `COc1cc(C)c2[nH]cc(/C=N/NC(=N)NCCc3ccc(Br)cc3)c2c1` here?
**A.** 69.9 nM

**Q.** Which EC50 does the source give for `N=C(NCCc1ccc(Cl)cc1)N/N=C/c1c[nH]c2cccc(F)c12` here?
**A.** 3210 nM

**Q.** With `N=C(NCCc1ccc(Cl)cc1)N/N=C/c1c[nH]c2ccccc12` as the compound, how does the EC50 read?
**A.** 6940 nM

**Q.** For `COc1ccc2[nH]cc(/C(C)=N/NC(=N)NCCc3ccc(Cl)cc3)c2c1`, which EC50 is on record?
**A.** 7690 nM

**Q.** For `COc1cc(C)c2[nH]cc(/C=N/NC(=N)NCCc3ccccc3)c2c1`, which EC50 is on record?
**A.** 224 nM

**Q.** For `COc1cc(C)c2[nH]cc(/C=N/NC(=N)NCCc3ccccn3)c2c1`, which EC50 is on record?
**A.** 855 nM

**Q.** With `N=C(NCCc1ccc(Cl)cc1)N/N=C/c1c[nH]c2ccc(Cl)cc12` as the compound, how does the EC50 read?
**A.** 2820 nM

**Q.** For `N=C(NCCc1ccc(Cl)cc1)N/N=C/c1c[nH]c2c(F)cccc12`, which EC50 is on record?
**A.** 2790 nM

**Q.** Which EC50 does the source give for `N=C(NCCc1ccc(Cl)cc1)N/N=C/c1c[nH]c2ccc(F)cc12` here?
**A.** 1360 nM

**Q.** For `COc1cc(C)c2[nH]cc(/C=N/NC(=N)NCc3ccc(Cl)cc3)c2c1`, which EC50 is on record?
**A.** 3950 nM

**Q.** Which EC50 does the source give for `N=C(NCCc1ccc(Cl)cc1)N/N=C/c1c[nH]c2ccc([N+](=O)[O-])cc12` here?
**A.** 317 nM

**Q.** With `COc1cc(C)c2[nH]cc(/C=N/NC(=N)NCCc3ccc(C#N)cc3)c2c1` as the compound, how does the EC50 read?
**A.** 13.2 nM

Target: Relaxin-3 receptor 2 (Homo sapiens, UniProt Q8TDU9)
Sequence (Q8TDU9 whole entry): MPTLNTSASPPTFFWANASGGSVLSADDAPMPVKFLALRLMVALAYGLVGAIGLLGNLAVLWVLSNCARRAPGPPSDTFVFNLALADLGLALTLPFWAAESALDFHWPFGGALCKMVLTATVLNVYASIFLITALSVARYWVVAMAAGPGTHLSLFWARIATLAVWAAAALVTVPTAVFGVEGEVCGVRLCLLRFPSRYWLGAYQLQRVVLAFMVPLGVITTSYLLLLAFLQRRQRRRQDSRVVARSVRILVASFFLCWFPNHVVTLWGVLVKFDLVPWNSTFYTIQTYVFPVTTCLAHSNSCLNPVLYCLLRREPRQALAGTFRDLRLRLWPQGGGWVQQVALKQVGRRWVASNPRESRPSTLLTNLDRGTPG
Experiment: not given
Details: not given

**Q.** Which EC50 does the source give for `CCc1cc(O)cc2c(/C=N/NC(=N)NCCc3ccc(Cl)cc3)c[nH]c12` here?
**A.** 0.8 nM

**Q.** With `COC(=O)c1ccc(CCNC(=N)N/N=C/c2c[nH]c3c(C)cc(OC)cc23)cc1` as the compound, how does the EC50 read?
**A.** 3.4 nM

**Q.** For `CCc1cc(OC)cc2c(/C=N/NC(=N)NCCc3ccc(C#N)cc3)c[nH]c12`, which EC50 is on record?
**A.** 1.8 nM

**Q.** For `CCc1cc(OC)cc2c(/C=N/NC(=N)NCCc3ccc(F)cc3)c[nH]c12`, which EC50 is on record?
**A.** 4 nM

**Q.** Which EC50 does the source give for `CCc1cc(OC)cc2c(/C=N/NC(=N)NCCc3cccnc3)c[nH]c12` here?
**A.** 1.1 nM

**Q.** For `COC(=O)c1ccc(CCNC(=N)N/N=C/c2c[nH]c3c(C)cc(C#N)cc23)cc1`, which EC50 is on record?
**A.** 2.7 nM

**Q.** Which EC50 does the source give for `CCc1cc(C#N)cc2c(/C=N/NC(=N)NCCc3cccnc3)c[nH]c12` here?
**A.** 0.9 nM

Test system: not listed separately
Experiment: physchem
Details: buffer, pH 7.4

**Q.** With `CCc1cc(OC)cc2c(/C=N/NC(=N)NCCc3ccc(F)cc3)c[nH]c12` as the compound, how does the solubility kinetic at 2 h read?
**A.** 19.5 µM (≈ 7.44 µg/mL)

**Q.** Which solubility kinetic at 2 h does the source give for `CCc1cc(OC)cc2c(/C=N/NC(=N)NCCc3cccnc3)c[nH]c12` here?
**A.** 74.6 µM (≈ 27.2 µg/mL)

Target: T1, Relaxin-3 receptor 1
Experiment: biochemical
Details: not given

**Q.** Which Ki does the source give for `COc1cc(C)c2[nH]cc(/C=N/NC(=N)NCCc3ccc(C#N)cc3)c2c1` here?
**A.** 268 nM
